# From US20210228685A1, “IMPROVED WEIGHT LOSS THERAPY” (BIOREG LLC, priority 2018, published 2021)
# Columns and labels:
# ATGL = target: T1, ATGL (Mus musculus, UniProt Q8BJ56); assay: Atglistatin inhibition of rLIF- or isoproterenol-induced adipocyte lipolysis; format: cell-based; conditions: 1 ng/ml rLIF, increasing concentrations of Atglistatin
# T1 construct: endogenous in cells; host or cells: differentiated SVF adipocytes
# T1 sequence (Q8BJ56 1-486): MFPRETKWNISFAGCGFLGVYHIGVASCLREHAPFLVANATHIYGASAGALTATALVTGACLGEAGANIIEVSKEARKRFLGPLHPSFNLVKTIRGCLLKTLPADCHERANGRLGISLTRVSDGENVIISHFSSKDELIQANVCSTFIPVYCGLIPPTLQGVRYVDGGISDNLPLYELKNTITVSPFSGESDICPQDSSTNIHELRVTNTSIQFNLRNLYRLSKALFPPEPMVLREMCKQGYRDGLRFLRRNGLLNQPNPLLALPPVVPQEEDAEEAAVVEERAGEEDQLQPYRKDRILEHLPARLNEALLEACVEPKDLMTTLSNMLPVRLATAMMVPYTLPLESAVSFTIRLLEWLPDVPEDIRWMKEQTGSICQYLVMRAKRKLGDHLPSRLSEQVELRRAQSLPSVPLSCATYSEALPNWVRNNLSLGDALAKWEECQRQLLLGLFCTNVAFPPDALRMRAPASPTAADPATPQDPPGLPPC
# Description: Using the tissue culture adipocyte lipolysis assay, we tested both purified recombinant versions of LIF for their ability to stimulate lipolysis. FIG. 1B-D show adipocyte lipolysis and signaling in wild-type and mutant rLIF-treated adipocytes. Differentiated adipocytes in a 12-well format were treated in a final volume of 1.5 ml of medium supplemented with either the indicated concentration of rLIF or rLIF K159A (FIG. 1B-C); or 30 nM Isoprotererenol or 1 ng/ml rLIF in the absence or presence of the indicated concentration of Atglistatin (FIG. 1D). After incubation for 20 h at 37° C., medium was collected and glycerol concentration was measured using the adipocyte lipolysis assay (FIGS. 1B and D) or adipocyte cells were harvested and subjected to IB analysis (FIG. 1C) ([…]) with the indicated antibody. Each data point (FIG. 1B) represents the mean±SEM of the relative change in medium glycerol concentration compared to conditions containing rLIF without Atglistatin (red, 26 μM) or isoproterenol without Atglistatin (black, 83 μM). As shown in (FIG. 1B), in vitro adipocyte lipolysis activity with WT rLIF was increased over background by ˜5-fold compared with mutant rLIF K159A.
# In adipocytes, triglycerides are sequentially hydrolyzed by ATGL, HSL, and monoacylglycerol lipase (MGL). […]
# [1] = test system: differentiated SVF adipocytes; assay: adipocyte lipolysis assay (glycerol released into the medium); format: cell-based; conditions: 12-well format, 20 h at 37° C., without Atglistatin; 1 ng/ml rLIF or 30 nM isoproterenol
# Description: Conditioned medium from the C26c20 and MC-38 cells was subsequently placed on differentiated adipocytes, and the amount of glycerol released into the medium was quantified. Glycerol release into the medium is a marker for triglyceride lipolysis in adipocytes (27).
# SVF preadipocytes were differentiated into adipocytes as follows: On day −3, SVF preadipocytes were set up in 1 ml medium B at a density of 1×10^6 cells/well of 12-well plates or 3.3×10^5 cells/well of 48-well plates. […] After 2 minutes, the amount of absorbance per well was measured using a Tecan microplate reader (absorbance 540 nm). The amount of glycerol concentration released into the medium per condition over background was calculated using the measured absorbance relative to the absorbance of the standardized curve.
# To identify the proteins that mediated lipolysis in C26c20 conditioned medium, we carried out a biochemical purification using the lipolysis assay described above using SVF preadipocytes differentiated into adipocytes set up in 12-well plates or 48-well plates. […] After 2 minutes, the amount of absorbance per well was measured using a Tecan microplate reader (absorbance 540 nm). The amount of glycerol concentration released into the medium per condition over background was calculated using the measured absorbance relative to the absorbance of the standardized curve. […]
inhibition of rLIF-induced lipolysis (ATGL),Structure (SMILES),medium glycerol concentration [1] [µM]
inhibited,CN(C)C(=O)Nc1cccc(-c2ccc(N(C)C)cc2)c1 [Atglistatin],–
–,CC(C)NCC(O)c1ccc(O)c(O)c1 (centres unmarked) [isoproterenol],83
